This passage reports melting point results from patent US7956059B2, “Aliphatic amide and ester pyrazinoylguanidine sodium channel blockers” (Parion Sciences, Inc., priority 2004, dated 2011).

As usually defined, the melting point is the temperature of the solid-liquid transition.

The structures appear in SMILES notation. Where “and” joins values, the source holds several entries; their conditions need not be identical. Equal entries are not always repeated. Structures can show the parent of a compound that is named as a salt.

`N=C(N)N(CCCCCCCCCCC(N)=O)C(=O)c1nc(Cl)c(N)nc1N` [ALB 27317, 11-[N-(3,5-Diamino-6-chloropyrazine-2-carbonyl)guanidino]undecanoic acid amide]: the melting point is 69 to 72 °C.

Consider `N=C(N)N(CCCCCCCCCCC(=O)O)C(=O)c1nc(Cl)c(N)nc1N` [ALB 26795, 11-[N-(3,5-Diamino-6-chloropyrazine-2-carbonyl)guanidino]undecanoic acid], for which the melting point lay in the range of 181 to 191 °C.

The molecule `CN(C)CCCNC(=O)CCCCCCCCCCCNC(N)=NC(=O)c1nc(Cl)c(N)nc1N` [ALB 26982, 12-[N′-(3,5-Diamino-6-chloropyrazine-2-carbonyl)guanidino]dodecanoic acid (3-dimethylaminopropyl)amide] displayed a melting point of 82 to 84 °C.

On to `N=C(NCCCCCCCCCCCC(=O)O)NC(=O)c1nc(Cl)c(N)nc1N` [ALB 26799, 12-[N′-(3,5-diamino-6-chloropyrazine-2-carbonyl)guanidino]-dodecanoic acid], for which the melting point was 194 to 196 °C and 192 to 194 °C.

Take `CN(C)CCCNC(=O)CCCCCCCCCCN(C(=N)N)C(=O)c1nc(Cl)c(N)nc1N` (as salt: salt) [ALB 27160, 11-[N-(3,5-Diamino-6-chloropyrazine-2-carbonyl)guanidino]undecanoic acid (3-dimethylaminopropyl)amide]: the melting point fell in the range of 52 to 56 °C.

The molecule `NC(=NC(=O)c1nc(Cl)c(N)nc1N)NCCCCCCCCCCCC(=O)Nc1ncc[nH]1` [ALB 27070, 12-[N′-(3,5-Diamino-6-chloropyrazine-2-carbonyl)guanidino]dodecanoic acid (1H-imidazol-2-yl)amide] gave a melting point of 102 to 104 °C.

`N=C(NCCCCCCCCCCCC(=O)N1CCNCC1)NC(=O)c1nc(Cl)c(N)nc1N` (as salt: hydrochloride) [ALB 27069, N-(3,5-Diamino-6-chloropyrazine-2-carbonyl)-N′-(12-oxo-12-piperazin-1-yl-dodecyl)guanidine dihydrochloride] displayed a melting point of 148 to 150 °C.
